# Results published in US8012980B2, “Isoquinolinone derivatives” (AstraZeneca AB, priority 2008, dated 2011).
# System: LPS-induced BAL neutrophilia
# Experiment: LPS Challenge Assay (neutrophil migration into the airway after aerosol LPS challenge)
# Type: in vivo, Han Wistar (HW) rat
# Conditions: Han Wistar rat; nose-only inhalation; nebuliser concentration of <1 mg/mL; dosed 0.5 hour before the LPS challenge
# Method: The following is a description of an assay that may be used to evaluate a compounds activity on neutrophil migration into the airway after aerosol challenge with lipopolysaccharide (LPS) in the Han Wistar (HW) rat.
# LPS challenge in HW rats caused an influx of inflammatory cells into the lungs. Rats were challenged either with an aerosol of 0.9% w/v saline or 0.5 mg/mL LPS in 0.9% saline for 30 min. Rats were dosed with vehicle or test compound by nose-only inhalation administration at various time points before challenge depending upon the experimental protocol. Test compound groups could either be the same compound at different doses or single doses of different compounds. […]
# The rats were euthanized with 200 mg pentobarbitone sodium at various time points after challenge depending upon the nature of the study, but typically 4 hr after LPS challenge. […] An aliquot of BAL fluid was removed and counted on the Sysmex XT2000Vet automated cell counter (Sysmex UK, Milton Keynes). […] Cells were classified as eosinophils, neutrophils or mononuclear cells (mononuclear cells included monocytes, macrophages and lymphocytes) and were expressed as a percentage of the total cell count.
# Compounds were scored as active if a statistically significant (i.e. p<0.05) inhibition of the LPS-induced BAL neutrophilia response was observed.
row,Compound,"activity in LPS Challenge Assay (active = statistically significant, p<0.05, inhibition of the LPS-induced BAL neutrophilia response)"
1,"Cc1c(F)cc(C(=O)NC2CC2)cc1-c1ccc2c(=O)n(CC(C)(C)CO)cc(CN3CCNC[C@H]3C)c2c1 [Example 26, N-Cyclopropyl-3-fluoro-5-[2-(3-hydroxy-2,2-dimethylpropyl)-4-{[(2R)-2-methylpiperazin-1-yl]methyl}-1-oxo-1,2-dihydroisoquinolin-6-yl]-4-methylbenzamide]",active

# System: mouse lymphoma L5178Y cells
# Experiment: In Vitro Micronucleus Assay (genotoxicity)
# Type: cell-based
# Conditions: 3 hours exposure in the presence or absence of S9 mix, up to 1 mmol/L or solubility limit
# Source text: In Vitro Micronucleus Assay
# The following is a description of an assay that may be used to assess the genotoxicity of a compound using mouse lymphoma […] cells.
# The in vitro micronucleus assay (IVM) detects chemicals that induce chromosomal damage by measuring the formation of small intra cell membrane-bound DNA fragments. At AstraZeneca, L5178Y cells are used as these are the cells of choice for follow on regulatory mammalian cell in vitro genotoxicity screening. The test system is simple to perform and produces rapid results. The IVM is suitable as a preliminary genetic toxicity-screening assay prior to compound selection.
# A wide range of test chemical concentrations, up to 1 mmol/L or the chemicals solubility limit, is tested. […] Where possible, 20 hours after treatment exposure, at least three concentrations giving acceptable levels of toxicity (greater than 10% survival as measured by two day relative suspension growth) are selected for analysis of micronucleated cells. […] Where possible, a total of at least 1000 cells per culture are scored.
# For any concentration, an increase in the number of micronucleated cells is considered to be significant if the increase is at least 2-fold the concurrent solvent control level, and the number of micronucleated cells is greater than 8 per thousand cells scored.
row,Compound,activity in micronucleus assay (significant = at least 2-fold solvent control and more than 8 micronucleated cells per thousand)
1,"Cc1c(F)cc(C(=O)NC2CC2)cc1-c1ccc2c(=O)n(CC(C)(C)CO)cc(CN3CCNC[C@H]3C)c2c1 [Example 26, N-Cyclopropyl-3-fluoro-5-[2-(3-hydroxy-2,2-dimethylpropyl)-4-{[(2R)-2-methylpiperazin-1-yl]methyl}-1-oxo-1,2-dihydroisoquinolin-6-yl]-4-methylbenzamide]",inactive

# Biological target: T1, human active recombinant p38 (p38α) (Homo sapiens, UniProt Q16539)
# T1 construct: 6His
# T1 sequence (Q16539 whole entry): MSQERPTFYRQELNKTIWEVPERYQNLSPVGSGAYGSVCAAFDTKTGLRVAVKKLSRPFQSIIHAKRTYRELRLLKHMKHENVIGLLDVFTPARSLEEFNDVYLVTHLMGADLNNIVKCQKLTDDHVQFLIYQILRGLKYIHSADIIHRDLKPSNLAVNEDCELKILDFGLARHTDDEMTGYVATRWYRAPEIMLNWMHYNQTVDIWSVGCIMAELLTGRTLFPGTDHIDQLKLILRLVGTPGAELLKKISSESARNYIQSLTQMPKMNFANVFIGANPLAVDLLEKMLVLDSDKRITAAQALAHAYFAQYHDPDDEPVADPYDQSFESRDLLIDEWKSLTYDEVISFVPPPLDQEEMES
# Experiment: p38 Alpha Enzyme Assay (AlphaScreen, biotinylated-ATF2 substrate)
# Type: biochemical
# Conditions: means of replicate determinations; pre-incubated for 4 hours at 37° C.; SD of assay between 0.2 and 0.3 log units; read-out: p38α inhibition Mean pIC50 (converted)
row,Compound,IC50
1,"Cc1c(F)cc(C(=O)NC2CC2)cc1-c1ccc2c(=O)n(CC(C)(C)CO)cc(CN3CCNC[C@H]3C)c2c1 [Example 26, N-Cyclopropyl-3-fluoro-5-[2-(3-hydroxy-2,2-dimethylpropyl)-4-{[(2R)-2-methylpiperazin-1-yl]methyl}-1-oxo-1,2-dihydroisoquinolin-6-yl]-4-methylbenzamide]",0.251 nM
2,"Cc1c(F)cc(C(=O)NC2CC2)cc1-c1ccc2c(=O)n(CCCO)cc(CN3CCNCC3)c2c1 [Example 10, N-Cyclopropyl-3-fluoro-5-[2-(3-hydroxypropyl)-1-oxo-4-(piperazin-1-ylmethyl)-1,2-dihydroisoquinolin-6-yl]-4-methylbenzamide]",0.0794 nM
3,"Cc1c(F)cc(C(=O)NC2CC2)cc1-c1ccc2c(=O)n(CCCO)cc(CN3CCN[C@H](CO)C3)c2c1 [Example 3, N-Cyclopropyl-3-fluoro-5-(4-(((3S)-3-(hydroxymethyl)piperazin-1-yl)methyl)-2-(3-hydroxypropyl)-1-oxo-1,2-dihydroisoquinolin-6-yl)-4-methylbenzamide]",0.158 nM
4,"Cc1c(F)cc(C(=O)NC2CC2)cc1-c1ccc2c(=O)n(CC3(CO)CC3)cc(CN3CCNC[C@@H]3CO)c2c1 [Example 16, N-Cyclopropyl-3-fluoro-5-(2-((1-(hydroxymethyl)cyclopropyl)methyl)-4-(((2R)-2-(hydroxymethyl)piperazin-1-yl)methyl)-1-oxo-1,2-dihydroisoquinolin-6-yl)-4-methylbenzamide]",0.251 nM
5,"Cc1c(F)cc(C(=O)NC2CC2)cc1-c1ccc2c(=O)n(CC3CC3)cc(S(=O)(=O)N3CCNCC3)c2c1 [Example 47, N-Cyclopropyl-3-[2-(cyclopropylmethyl)-1-oxo-4-(piperazin-1-ylsulfonyl)-1,2-dihydroisoquinolin-6-yl]-5-fluoro-4-methylbenzamide]",0.251 nM
6,"Cc1c(F)cc(C(=O)NC2CC2)cc1-c1ccc2c(=O)n(CC(C)(C)CO)cc(CN3CCC[C@@H](N)C3)c2c1 [Example 30, 3-[4-{[(3R)-3-Aminopiperidin-1-yl]methyl}-2-(3-hydroxy-2,2-dimethylpropyl)-1-oxo-1,2-dihydroisoquinolin-6-yl]-N-cyclopropyl-5-fluoro-4-methylbenzamide]",0.126 nM

# More lines, now with the values ahead:
row,IC50,Compound
1,0.398 nM,"Cc1c(F)cc(C(=O)NC2CC2)cc1-c1ccc2c(=O)n(CC(C)(C)CO)cc(S(=O)(=O)N3CC[C@H](N)C3)c2c1 [Example 53, 3-[4-{[(3S)-3-Aminopyrrolidin-1-yl]sulfonyl}-2-(3-hydroxy-2,2-dimethylpropyl)-1-oxo-1,2-dihydroisoquinolin-6-yl]-N-cyclopropyl-5-fluoro-4-methylbenzamide]"
2,2.51 nM,"Cc1c(F)cc(C(=O)NC2CC2)cc1-c1ccc2c(=O)n(CC(C)(C)CO)cc(S(=O)(=O)N3CCC[C@@H]3CN)c2c1 [Example 55, 3-[4-{[(2R)-2-(aminomethyl)pyrrolidin-1-yl]sulfonyl}-2-(3-hydroxy-2,2-dimethylpropyl)-1-oxo-1,2-dihydroisoquinolin-6-yl]-N-cyclopropyl-5-fluoro-4-methylbenzamide]"
3,0.2 nM,"Cc1c(F)cc(C(=O)NC2CC2)cc1-c1ccc2c(=O)n(CC(C)(CO)CO)cc(SC3CCNCC3)c2c1 [Example 66, N-Cyclopropyl-3-fluoro-5-{2-[3-hydroxy-2-(hydroxymethyl)-2-methylpropyl]-1-oxo-4-(piperidin-4-ylsulfanyl)-1,2-dihydroisoquinolin-6-yl}-4-methylbenzamide]"
4,< 0.0631 nM,"Cc1c(F)cc(C(=O)NC2CC2)cc1-c1ccc2c(=O)n(CC(C)(C)CO)cc(S[C@@H]3CCNC3)c2c1 [Example 65, N-Cyclopropyl-3-fluoro-5-{2-(3-hydroxy-2,2-dimethylpropyl)-1-oxo-4-[(3R)-pyrrolidin-3-ylsulfanyl]-1,2-dihydroisoquinolin-6-yl}-4-methylbenzamide]"
